Reference: paper PMC9925557, “Anti-inflammatory effects of new human histamine H3 receptor ligands with flavonoid structure on BV-2 neuroinflammation” (Inflammation Research, 2022)

What was measured:
[1] = target: T1, human H3 receptor (Homo sapiens, UniProt Q9Y5N1); experiment: [3H]Nα-methylhistamine radioligand binding, CHO-K1 cells stably expressing hH3R
T1 construct: expressed in transfected cells; host or cells: CHO-K1
Description: Radioligand binding studies were conducted using CHO-K1 cells stably transfected with the human H3 receptor as we described previously. All assays were carried out in duplicates. [^3H]-N-α-methylhistamine was used as radioligand and (R)(-)-α-methylhistamine was used to define nonspecific binding. Radioactivity was counted in MicroBeta2 scintillation counter (PerkinElmer). Data were fitted to a one-site curve-fitting equation with Prism 6 (GraphPad Software) and Ki values were estimated from the Cheng − Prusoff equation.
Compounds IIIa–IIIc were tested for affinity for human H3R (hH3R) in a radioligand binding assay with N^α-methylhistamine as a radioligand in CHO K1 cells stably expressing hH3R. Results are presented as Ki values with SEM (Table 2). […] However, it is still a very active compound. The affinity for hH3R (stably expressed in HEK293 cells) of compound E243 was recently described.

[2] = target: T2, human histamine H1 receptor (Homo sapiens, UniProt P35367); experiment: [3H]Pyrilamine radioligand binding, CHO-K1 cells stably expressing hH1R; conditions: for Selectivity Ki (H1R)/Ki (H3R): hH3R over hH1R
T2 construct: expressed in transfected cells; host or cells: CHO-K1
Description: (§1) Radioligand binding studies, using CHO-K1 cells stably expressing the H1R or Sf9 cells transiently expressing the H4R were performed as described previously. [^3H]Pyrilamine (H1R) and [^3H]histamine (H4R) were used as radiolignads. Affinities were determined using at least five different concentrations of tested compounds in triplicate independent experiments.

[3] = target: T3, human histamine H4 receptor (Homo sapiens, UniProt Q9H3N8); experiment: [3H]Histamine radioligand binding, Sf9 cells transiently expressing hH4R; conditions: for Selectivity Ki (H4R)/Ki (H3R): hH3R over hH4R
T3 construct: expressed in transfected cells; host or cells: Sf9
Description: as §1

[4] = test system: BV-2 cells; experiment: MTS cell viability assay; format: cell-based, murine; conditions: Mus musculus, 24 h exposure, mean ± SD, read-out: IC50 (inhibition of cell viability)
Description: The murine microglial BV-2 cell line was purchased from the Interlab Cell Line Collection (ICLC) cell bank (Genova, Italy). The BV-2 cells were cultured in DMEM/F12 medium (Lonza, BioWhittaker, Walkersville, MD USA, 12-719F) containing 10% of heat-inactivated fetal bovine serum (FBS, Gibco, 10,500–064) in a humidified incubator containing 95% air and 5% CO2 at 37 °C. BV-2 cells were used for experiments at passages 3 to 11. In all experiments, the concentration of FBS was reduced to 5%.
BV-2 cells (2 × 10^4 cells/100 μl/well) were cultured in transparent 96-well plates (TPP, Trasadingen, Switzerland) in DMEM/F12 supplemented with 5% FBS in the presence of dimethylsulfoxide (DMSO ≤ 0.1%, vehicle control, Veh) or increasing doses of tested compounds (0.78 × 10^–6 – 50 × 10^–6 M). Compound treatment was performed for 24 h. After the incubation time, cell viability was examined using an MTS-based [3-(4,5-dimethylthiazol-2-yl)-5-(3-carboxymethoxyphenyl)-2-(4-sulfophenyl)-2 H tetrazolium] CellTiter96® AQueous One Solution Cell Proliferation Assay (Promega, Madison, USA) following the manufacturer’s protocol. Briefly, 20 μl of MTS solution was pipetted into each well containing 100 μl of culture or culture medium without cells (blank control), mixed well and incubated at 37 °C for 55 min. After the appropriate time, the absorbance was measured at 490 nm using the EnSpire microplate reader (PerkinElmer, Massachusetts, USA). IC50 values were calculated with non-linear regression fit to a sigmoidal dose–response curve (log of compound concentration versus normalized response) using GraphPad Prism (v. 4.0.3).
(§2) To establish an experimental model of neuroinflammation in vitro, BV-2 cells were cultured in a 96-well plate (2 × 10^4 cells/200 μl/per well) and a 24-well plate (15 × 10^4 cells/500 μl/well) for the MTS assay and the Griess assay or the RT-qPCR experiment, respectively. BV-2 cells were treated for 24 h, 45 h and 69 h with the increasing concentration of LPS (Sigma-Aldrich, Saint Louis, MO, USA, L4391): 0.001; 0.01; 0.1; 1 [μg/ml]. Following LPS stimulation, at each time point, 100 μl of culture medium from each sample was transferred to another plate and mixed with an equal volume of Griess reagent. Simultaneously, on the plate with cells, cell viability was assessed by adding 20 μl of MTS reagent. The cells cultured on a 24-well plate were used for assessing the expression levels of proinflammatory cytokines (IL-1β, IL-6, TNF-α) by RT-qPCR.
To avoid the toxic effect of H3R ligands in subsequent studies, an MTS assay was performed to investigate cell viability. BV-2 cells were cultured for 24 h in the presence of an increasing concentration of compounds E243 and IIIa–IIIc (twofold dilutions covered the range from 0.78 × 10^–6 to 50 × 10^–6 M). […]

[5] = test system: BV-2 cells; experiment: Griess assay (NO/nitrite level) in LPS-treated BV-2 cells; format: cell-based, murine; conditions: 6.25 μM, 1 h pretreatment, then 1 μg/ml LPS for 24 h
Description: The Griess assay is a colorimetric assay to measure the levels of nitrite (NO2^−) which is one of the primary and stable metabolites of NO. Griess reagent (Sigma-Aldrich, Saint Louis, MO, USA, G4410) was freshly prepared according to the manufacturer's instructions, that is, 1 g was dissolved in ultrapure water and mixed by inversion for about 4 min. For measuring nitric oxide, after an appropriate incubation time, 100 μl of culture medium was transferred to a transparent 96-well plate and mixed with the same volume of Griess reagent. The plate was incubated for 15 min at room temperature and the absorbance was read at 540 nm using the EnSpire microplate reader (PerkinElmer, Massachusetts, USA). Data were analysed by direct comparison based on the average absorbance of LPS treatment, compound treatment or co-treatment with LPS, performed by normalizing treated cells (compound alone or co-treatment with LPS) to LPS-treated cells set as 100%.
as §2
Fig. 6 The effect of the compounds tested (E243 and IIIa–IIIc) on nitric oxide (NO) production in BV-2 cells assessed by the Griess assay. BV-2 cells were pretreated for 1 h with indicated compounds at the concentration of 6.25 μM, followed by stimulation with 1 μg/ml LPS for 24 h. Data are expressed as mean ± SEM of two independent experiments, each of which consisted of eight replicates per treatment group and is expressed as a percentage of NO production versus cells treated with LPS (set at 100%). […] Data indicated with ***p < 0.001 (versus vehicle-treated cells) reflect statistically significant differences between the control and experimental groups

[6] = test system: BV-2 cells; experiment: ELISA of pro-inflammatory cytokines released by LPS-activated BV-2 cells; format: cell-based, murine; conditions: for Inhibitory activity on pro-inflammatory cytokine production: LPS-stimulated BV-2 cells, data not shown
Description: The concentrations of IL-1β, IL-6, TNF-α, the main inflammatory cytokines, were analysed using commercial ELISA kits (IL-6 ELISA kit, ADI-900–045, TNF-α ELISA kit, ADI-900–047, Enzo, Mouse IL-1 beta ELISA kit, Invitrogen) according to the manufacturer’s instructions. Briefly, at the end of 24 h of incubation with tested compounds, cell culture plates were centrifuged to remove cell debris from the supernatants. Culture medium was collected in Eppendorf tubes and frozen at −80 °C until further analysis.
Fig. 8 Effect of compound IIIc on the production of proinflammatory cytokines by LPS-activated BV-2 cells.

[7] = test system: BV-2 cells; experiment: RT-qPCR of pro-inflammatory cytokine mRNA in LPS-activated BV-2 cells; conditions: 6.25 μM, 1 h pretreatment, LPS 1 μg/ml 24 h; on average
[8] = test system: human AChE; set-up: method as in PMID 31669851; conditions: cited from earlier work
[9] = test system: electric eel AChE; set-up: method as in PMID 31669851; conditions: cited from earlier work
[10] = test system: equine BuChE; set-up: method as in PMID 31669851; conditions: cited from earlier work
[11] = test system: neuroblastoma SH-SY5Y cells; conditions: 1 µM, 24 h pre-treatment; H2O2 (300 μM) and okadaic acid (50 nM); ref 2nd International Conference on Neuroprotection by Drugs, Nutraceuticals and Physical Activity, 9–10 Dec 2021; cited from earlier work
[12] = 6.25 μM, 1 h pretreatment, LPS 1 μg/ml 24 h

T2 sequence (P35367 whole entry): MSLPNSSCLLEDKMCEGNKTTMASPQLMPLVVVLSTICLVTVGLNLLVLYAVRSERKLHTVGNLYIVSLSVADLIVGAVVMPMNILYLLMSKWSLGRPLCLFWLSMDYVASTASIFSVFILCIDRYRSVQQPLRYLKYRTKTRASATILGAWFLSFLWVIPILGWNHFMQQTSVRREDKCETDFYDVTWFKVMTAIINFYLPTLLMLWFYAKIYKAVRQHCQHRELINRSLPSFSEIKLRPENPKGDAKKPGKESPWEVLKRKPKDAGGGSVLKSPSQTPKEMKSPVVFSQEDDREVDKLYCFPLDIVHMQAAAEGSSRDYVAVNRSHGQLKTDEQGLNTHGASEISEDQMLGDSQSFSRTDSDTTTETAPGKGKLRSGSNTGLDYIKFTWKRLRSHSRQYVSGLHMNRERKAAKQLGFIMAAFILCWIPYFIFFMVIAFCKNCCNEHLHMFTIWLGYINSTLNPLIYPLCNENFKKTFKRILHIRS
T3 sequence (Q9H3N8 whole entry): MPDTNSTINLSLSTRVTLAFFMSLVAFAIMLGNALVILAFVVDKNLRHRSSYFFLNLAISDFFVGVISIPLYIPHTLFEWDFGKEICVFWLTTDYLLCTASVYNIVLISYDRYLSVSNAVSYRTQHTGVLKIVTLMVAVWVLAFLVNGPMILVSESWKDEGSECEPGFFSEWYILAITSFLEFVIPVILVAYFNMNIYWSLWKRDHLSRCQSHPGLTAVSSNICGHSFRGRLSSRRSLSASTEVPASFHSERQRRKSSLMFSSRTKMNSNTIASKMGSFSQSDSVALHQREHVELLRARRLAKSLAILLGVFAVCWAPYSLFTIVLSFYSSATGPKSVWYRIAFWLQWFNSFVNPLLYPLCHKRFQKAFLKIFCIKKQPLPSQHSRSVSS
T1 sequence (Q9Y5N1 whole entry): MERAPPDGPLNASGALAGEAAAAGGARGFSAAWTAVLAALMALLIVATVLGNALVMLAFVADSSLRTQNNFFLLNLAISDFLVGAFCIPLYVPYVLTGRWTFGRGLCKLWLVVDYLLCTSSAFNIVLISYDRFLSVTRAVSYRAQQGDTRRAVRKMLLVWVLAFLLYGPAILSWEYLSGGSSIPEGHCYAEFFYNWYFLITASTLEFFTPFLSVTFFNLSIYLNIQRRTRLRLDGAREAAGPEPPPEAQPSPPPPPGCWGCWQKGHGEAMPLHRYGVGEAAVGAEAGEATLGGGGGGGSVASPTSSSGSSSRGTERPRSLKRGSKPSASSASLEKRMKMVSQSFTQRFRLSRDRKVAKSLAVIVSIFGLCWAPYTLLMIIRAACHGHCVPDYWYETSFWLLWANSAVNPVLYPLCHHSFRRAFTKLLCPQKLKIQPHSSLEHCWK

In the case of `COc1cc(/C=C/C(=O)c2ccc(OCCCN3CCCCC3)cc2)cc(OC)c1OC.Cl` [IIIc, (E)-3-(3,4,5-Trimethoxyphenyl)-1-(4-(3-(piperidin-1-yl)propoxy)phenyl)prop-2-en-1-one hydrogen chloride], the Ki [1] is reported as 24 ± 1.1 nM, the Ki [2] is reported as 2700 nM and the “Selectivity Ki (H1R)/Ki (H3R)” value [2] is reported as > 112. For the same molecule, the Ki [3] was 2820 nM, the “Selectivity Ki (H4R)/Ki (H3R)” value [3] was > 117 and the IC50 [4] was 11300 ± 3260 nM. The “Reduction of NO level compared to LPS treated cells” value (“Reduction of NO level” for short) [5] was 61%, the “Release of IL-1β compared to LPS-stimulated BV-2 cells” value [6, 12] was “significantly lower” and the “Release of IL-6 compared to LPS-stimulated BV-2 cells” value [6, 12] was “significantly lower”. For the same molecule, the “Release of TNF-α compared to LPS-stimulated BV-2 cells” value [6, 12] was “significantly lower”, the “IL-1β mRNA level, times lower than induced by LPS alone” value [7] was ~2 times and the “TNF-α mRNA level, times lower than induced by LPS alone” value [7] was ~3 times.

With `Cc1ccc2oc(-c3ccc(OCCCCCCN4CCCCC4)cc3)cc(=O)c2c1` [Compound E243] the Ki [2] was 1310 ± 128 nM, the “Selectivity Ki (H1R)/Ki (H3R)” value [2] was > 5 and the Ki [3] was 4440 nM. The “Selectivity Ki (H4R)/Ki (H3R)” value [3] was > 19, the IC50 [4] was 53500 ± 5560 nM and the “Reduction of NO level” value [5] was ~30%. The IC50 [8] was 360 nM, the IC50 [9] was 501 nM and the IC50 [10] was 758 nM. For the same molecule, the “Prevention of ROS production, times compared to neurotoxin-treated cells” value [11] was ~2 times.

With `COc1ccc(/C=C/C(=O)c2ccc(OCCCN3CCCCC3)cc2)cc1.Cl` [IIIa, (E)-3-(4-Methoxyphenyl)-1-(4-(3-(piperidin-1-yl)propoxy)phenyl)prop-2-en-1-one hydrogen chloride] the Ki [1] was 14 ± 0.2 nM, the IC50 [4] was 21200 ± 1980 nM and the “Reduction of NO level” value [5] was ~30%. For the same molecule, the “Inhibitory activity on pro-inflammatory cytokine production” value [6] was “have not shown inhibitory activity” and the melting point was 174 to 177 °C.

For `COc1ccc(/C=C/C(=O)c2ccc(OCCCN3CCCCC3)cc2)cc1OC.Cl` [IIIb, (E)-3-(3,4-Dimethoxyphenyl)-1-(4-(3-(piperidin-1-yl)propoxy)phenyl)prop-2-en-1-one hydrogen chloride], the Ki [1] was 9.6 ± 0.2 nM, the Ki [2] was 1080 nM and the “Selectivity Ki (H1R)/Ki (H3R)” value [2] was > 112. The Ki [3] was 12500 nM, the “Selectivity Ki (H4R)/Ki (H3R)” value [3] was > 1300 and the IC50 [4] was 26700 ± 3480 nM. For the same molecule, the “Reduction of NO level” value [5] was ~30%, the “Inhibitory activity on pro-inflammatory cytokine production” value [6] was “have not shown inhibitory activity” and the melting point was 173 to 176 °C.
